Where two headings read alike, the source gives them in different places.
Legend:
PDE 2A = PDE 2A (Homo sapiens (Human), UniProt O00408); assay: Phosphodiesterase (PDE) 2A assay with fluorescent substrate (IMAP, fluorescence polarization); format: biochemical; settings: labeled cAMP 30 nM, read-out: PDE2 IC50
Description: (§1) The PDE reaction cleaves cAMP to AMP. The IMAP system (Molecular Device) using fluorescence polarization (FP) as detection principle was used to measure enzyme activity. A fluorescent labeled cAMP was used as substrate for the reaction, generating a labeled AMP. The fluorescent AMP binds specifically to the large M(III)-based nano-particles which reduces the rotational speed of the substrate and thus increases its polarization.
(§2) The inhibition of PDE 2A or 10 enzyme activity was assessed using IMAP-Phosphodiesterase-cAMP fluorescence labeled substrate (Molecular Devices, Order No. R7506), IMAP TR-FRET screening express (Molecular Devices, Order No. R8160, the TR-FRET component will not be used) and PDE 2A or PDE10 protein expressed upon baculovirus infection in SF9 cells. The cells were incubated after infection for ˜3 days and protein production was confirmed by Western Blot. The cells were collected by centrifugation and the pellet frozen in liquid nitrogen before it was resuspended in PBS containing 1% Triton X-100 and protease inhibitors. After 45 min incubation on ice, the cell debris was removed by centrifugation (13.000 rpm, 30 min).
(§3) All reactions were performed in 384 well plates, Perkin Elmer black optiplates and IMAP reaction buffer with 0.1% Tween20 (kit component)
(§4) Compounds were serial diluted in DMSO. With an intermediate dilution step with reaction buffer DMSO concentration was reduced to achieve 1% DMSO in the assay reaction. Setup of the assay started with 10 μl enzyme (˜10 ng/well, depending on prep. batch), 5 μl compound, reaction was started by addition of 5 μl labeled cAMP (30 nM, final concentration), immediately mixed for 15 seconds on a Eppendorf mixmate (2000 rpm) followed by an incubation at room temperature for 90 minutes in the dark. Reaction is stopped by adding of 60 μl binding buffer for FP/cAMP (kit component).
(§5) Each assay plate contained wells with vehicle controls (1% DMSO) for the measurement of non-inhibited reaction (=100% control) and wells without enzyme as 0% controls.

PDE10 = PDE10 (Homo sapiens (Human), UniProt Q9Y233); assay: Phosphodiesterase (PDE) 10 assay with fluorescent substrate (IMAP, fluorescence polarization); format: biochemical; settings: labeled cAMP 30 nM
PDE10, sequence (Q9Y233 whole entry): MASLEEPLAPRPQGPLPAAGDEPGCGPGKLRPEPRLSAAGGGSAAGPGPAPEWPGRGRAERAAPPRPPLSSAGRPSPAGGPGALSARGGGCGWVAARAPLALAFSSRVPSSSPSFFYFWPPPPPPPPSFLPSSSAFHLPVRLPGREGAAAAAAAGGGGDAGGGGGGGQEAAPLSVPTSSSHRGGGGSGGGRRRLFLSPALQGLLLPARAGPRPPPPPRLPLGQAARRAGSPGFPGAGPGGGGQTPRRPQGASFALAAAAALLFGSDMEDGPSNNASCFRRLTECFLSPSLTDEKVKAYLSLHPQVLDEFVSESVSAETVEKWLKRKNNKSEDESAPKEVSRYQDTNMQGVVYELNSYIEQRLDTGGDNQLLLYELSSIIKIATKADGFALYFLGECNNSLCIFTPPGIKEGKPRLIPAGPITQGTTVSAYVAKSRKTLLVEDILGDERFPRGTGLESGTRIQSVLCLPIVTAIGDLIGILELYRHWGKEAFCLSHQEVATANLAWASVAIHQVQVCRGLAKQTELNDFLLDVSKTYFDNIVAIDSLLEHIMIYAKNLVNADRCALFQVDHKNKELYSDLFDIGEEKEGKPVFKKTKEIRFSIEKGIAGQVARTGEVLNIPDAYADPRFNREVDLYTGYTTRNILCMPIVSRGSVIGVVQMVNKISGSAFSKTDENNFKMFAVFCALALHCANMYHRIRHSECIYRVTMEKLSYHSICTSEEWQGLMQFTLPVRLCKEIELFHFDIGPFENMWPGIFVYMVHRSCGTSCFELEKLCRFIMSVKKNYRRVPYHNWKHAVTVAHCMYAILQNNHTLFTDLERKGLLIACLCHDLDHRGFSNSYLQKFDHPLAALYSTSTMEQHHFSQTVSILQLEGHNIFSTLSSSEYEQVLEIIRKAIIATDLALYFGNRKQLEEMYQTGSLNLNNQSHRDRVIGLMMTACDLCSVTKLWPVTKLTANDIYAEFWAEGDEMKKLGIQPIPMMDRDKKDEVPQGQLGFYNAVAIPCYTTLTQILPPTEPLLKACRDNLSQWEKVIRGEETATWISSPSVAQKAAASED
Description: as §1, §2, §3, §4, §5

[1] = Plasma protein binding with equilibrium dialysis, human plasma; format: in vitro ADME; settings: equilibrium dialysis 2 hours 37° C.; for PPB HUM % BINDING: human plasma, 1.0 μM; for fraction unbound at 2 h, 1 µM: human, pooled human plasma (with NaEDTA), pH 7.4, human plasma, read-out: PPB HUM % BINDING (converted)
From the text: (§6) Plasma Protein Binding (Determination of Human and Rat Plasma Protein Binding with Equilibrium Dialysis)
(§7) This equilibrium dialysis (ED) technique is used to determine the approximate in vitro fractional binding of test compounds to human and rat plasma proteins.
(§8) Dianorm Teflon dialysis cells (micro 0.2) are used. Each cell consists of a donor and an acceptor chamber, separated by an ultrathin semipermeable membrane with a 5 kDa molecular weight cutoff.
(§9) Stock solutions for each test compound are prepared in DMSO at 1 mM and diluted to a final concentration of 1.0 μM. The subsequent dialysis solutions are prepared in pooled human and rat plasma (with NaEDTA)
(§10) Aliquots of 200 μL dialysis buffer (100 mM potassium phosphate, pH 7.4) are dispensed into the buffer chamber. Aliquots of 200 μL test compound dialysis solution are dispensed into the plasma chambers. Incubation is carried out for 2 hours under rotation at 37° C.
(§11) At the end of the dialysis period, the dialysate is transferred into reaction tubes. The tubes for the buffer fraction contain 0.2 ml Acetonitril/water (80/20). Aliquots of 25 μl of the plasma dialysate are transferred into deep well plates and mixed with 25 μl Acetonitril/water (80/20), 25 μl buffer, 25 μl calibration solution and 25 μl Internal Standard solution. Protein precipitation is done by adding 200 μl Acetonitrile. Aliquots of 50 μl of the buffer dialysate are transferred into deep well plates and mixed with 25 μl blank plasma, 25 μl Internal Standard solution and 200 μl Acetonitril. Samples are measured on HPLC-MS/MS-Systems and evaluated with Analyst-Software.
(§12) Percent bound is calculated with the formula: % bound=(plasma concentration−buffer concentration/plasma concentration)×100 and % free is calculated as difference.

[2] = Metabolic stability in pooled human liver microsomes; format: in vitro ADME; settings: 1 mg/mL protein, 1 μM compound, 37° C.; for Half-life t½ human: human liver microsomes; for half-life at 1 µM: human, pooled human liver microsomes, pH 7.6, human liver microsomes, read-out: Half-life t½ human
Description: The metabolic degradation of the test compound was assayed at 37° C. with pooled liver microsomes from various species. The final incubation volume of 100 μl per time point contains TRIS buffer pH 7.6 at room temperature (0.1 M), magnesium chloride (5 mM), microsomal protein (1 mg/mL for human and dog, 0.5 mg/mL for other species) and the test compound at a final concentration of 1 μM. Following a short preincubation period at 37° C., the reactions were initiated by addition of betanicotinamide adenine dinucleotide phosphate, reduced form (NADPH, 1 mM), and terminated by transferring an aliquot into solvent after different time points. […] The half-life was determined by the slope of the semi-logarithmic plot of the concentration-time profile.

[3] = Plasma protein binding with equilibrium dialysis, rat plasma; format: in vitro ADME; settings: rat, pooled rat plasma (with NaEDTA), pH 7.4, rat plasma, equilibrium dialysis 2 hours 37° C., read-out: PPB RAT % BINDING (converted)
From the text: as §6, §7, §8, §9, §10, §11, §12

[4] = In-vivo effect: animal experiments and sample analysis (plasma, brain, CSF concentration); settings: rat, 0.5 h between administration and CSF sampling; for concentration at 0.5 h: doses of 10.0 or 5 μmol/kg
Description: In-Vivo Effect: Animal Experiments and Sample Analysis (CSF):
CSF samples were carefully collected by puncture of the cisterna magna under anesthaesia. Immediately after CSF sampling, blood was taken by heart puncture and brains were dissected out. Blood was collected in EDTA-coated microvettes and plasma was prepared by centrifugation. Concentration of the test compounds in plasma, CSF or brain homogenate was determined using HPLC-MS-MS.

[5] = brain homogenate, read-out: conc brain
[6] = brain, read-out: c(brain)/c(plasma)

PDE 2A, sequence (O00408 whole entry, species assumed): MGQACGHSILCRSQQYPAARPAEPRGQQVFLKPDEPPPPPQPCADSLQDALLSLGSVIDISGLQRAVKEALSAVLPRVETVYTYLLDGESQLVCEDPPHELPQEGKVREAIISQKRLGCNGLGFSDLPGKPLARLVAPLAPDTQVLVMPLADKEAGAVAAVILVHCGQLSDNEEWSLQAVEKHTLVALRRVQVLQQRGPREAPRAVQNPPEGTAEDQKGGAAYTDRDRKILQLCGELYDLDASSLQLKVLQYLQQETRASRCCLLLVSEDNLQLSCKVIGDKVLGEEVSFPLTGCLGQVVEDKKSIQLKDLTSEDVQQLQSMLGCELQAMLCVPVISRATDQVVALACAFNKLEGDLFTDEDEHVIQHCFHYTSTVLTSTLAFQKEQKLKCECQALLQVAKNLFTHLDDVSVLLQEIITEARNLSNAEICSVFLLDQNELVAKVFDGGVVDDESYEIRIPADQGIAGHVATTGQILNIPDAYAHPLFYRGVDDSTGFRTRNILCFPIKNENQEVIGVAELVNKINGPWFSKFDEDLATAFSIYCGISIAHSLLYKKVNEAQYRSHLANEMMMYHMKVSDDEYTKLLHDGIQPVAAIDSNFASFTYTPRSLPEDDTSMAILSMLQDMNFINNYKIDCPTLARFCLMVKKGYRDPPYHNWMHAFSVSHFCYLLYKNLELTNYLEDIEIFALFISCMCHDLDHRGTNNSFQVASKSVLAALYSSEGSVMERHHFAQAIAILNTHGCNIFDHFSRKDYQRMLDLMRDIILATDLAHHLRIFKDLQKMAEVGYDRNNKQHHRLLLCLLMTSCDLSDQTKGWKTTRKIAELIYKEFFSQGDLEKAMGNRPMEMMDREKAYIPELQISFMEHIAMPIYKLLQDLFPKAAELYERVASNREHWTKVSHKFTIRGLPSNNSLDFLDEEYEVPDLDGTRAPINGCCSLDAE

Row | IC50 (PDE 2A) [nM] | IC50 (PDE10) [nM] | PPB HUM % BINDING [1] [%] | Half-life t½ human [2] [h] | fraction unbound at 2 h, 1 µM [1] | fraction unbound at 2 h, 1 µM [3] | half-life at 1 µM [2] [h] | concentration at 0.5 h [4, 5] [nM] | concentration at 0.5 h ([4]; plasma, read-out: conc plasma) [nM] | concentration at 0.5 h ([4]; read-out: conc CSF) [nM] | Kp at 0.5 h [4, 6] | Kp at 0.5 h ([4]; read-out: c(CSF)/c(plasma)) | Compound
1 | 24 | > 10000 | 84.4 | >2.17 | – | – | – | – | – | – | – | – | O=C(NC1(c2ccc(C(F)(F)F)cc2F)COCC1O)c1cnn2cc(C3CC3)cnc12 (single isomer, unassigned) [Example 68]
2 | 39 | 6940 | – | – | 0.086 | 0.093 | > 2.17 | – | – | – | – | – | Cc1nn2cc(C3CC3)cnc2c1C(=O)NC1(c2ncc(C(F)(F)F)cc2F)CCOCC1 [Example 17]
3 | – | – | – | – | 0.531 | – | > 2.17 | – | – | – | – | – | Cc1nn2cc(C3CC3)cnc2c1C(=O)NC1(c2ccc(C(F)(F)F)nc2)CCOCC1O (racemic) [Example 51]
4 | – | – | – | – | 0.558 | – | > 2.17 | – | – | – | – | – | Cc1nn2cc(C3CC3)cnc2c1C(=O)NC1(c2ccc(C(F)(F)F)nc2)CCOCC1O (single isomer, unassigned) [Example 88b]
5 | 266 | > 10000 | – | – | 0.157 | – | 1.2 | – | – | – | – | – | O=C(NC1(c2ccc(C(F)(F)F)cc2F)CCOCC1)c1cnn2cc(F)cnc12 [Example 3]
6 | 30 | > 10000 | – | – | 0.047 | 0.024 | – | – | – | – | – | – | Cc1cnc2c(C(=O)NC3(c4ccc(C(F)(F)F)cc4F)CCCOC3)cnn2c1 (racemic) [Example 31]
7 | – | – | – | – | 0.156 | 0.178 | > 2.17 | 449 | 794 | 61 | – | – | Cc1cnc2c(C(=O)NC3(c4ccc(C(F)(F)F)cc4F)CCOCC3(C)O)cnn2c1 (single isomer, unassigned) [Example 83a]
8 | 31 | > 10000 | – | – | 0.076 | 0.063 | – | – | – | – | – | – | Cc1cnc2c(C(=O)NC3(c4ccc(C(F)(F)F)cc4F)CCOC3)cnn2c1 (racemic) [Example 35]
9 | 88 | 9070 | – | – | 0.246 | 0.169 | > 2.17 | 957 | 1040 | 111 | 0.92 | 0.12 | Cc1nn2cc(C3CC3)cnc2c1C(=O)NC1(c2ccc(C(F)(F)F)nc2)CCOCC1 [Example 25]
10 | – | > 10000 | – | – | 0.37 | 0.257 | > 2.17 | 1070 | 2460 | 261 | – | – | Cc1cnc2c(C(=O)NC3(c4ccc(C(F)(F)F)cc4F)CCOCC3O)cnn2c1 (single isomer, unassigned) [Example 81a]
11 | – | > 10000 | – | – | 0.329 | 0.313 | > 2.17 | – | – | – | – | – | Cc1cnc2c(C(=O)NC3(c4ccc(C(F)(F)F)cc4F)CCOCC3O)cnn2c1 (racemic) [Example 46]
12 | – | – | – | – | 0.105 | 0.065 | – | – | – | – | – | – | CC1(O)COCCC1(NC(=O)c1cnn2cc(C3CC3)cnc12)c1ccc(C(F)(F)F)cc1F (single isomer, unassigned) [Example 86a]
13 | 22 | > 10000 | – | – | 0.085 | 0.053 | 2 | – | – | – | – | – | Cc1cnc2c(C(=O)NC3(c4ccc(C(F)(F)F)cc4F)CCOCC3)cnn2c1 [Example 2]
14 | 192 | > 10000 | – | – | 0.056 | 0.065 | > 2.17 | – | – | – | – | – | O=C(NC1(c2ccc(C(F)(F)F)cc2)CCOC1)c1cnn2cc(C3CC3)cnc12 (racemic) [Example 37]
15 | 1.2 | > 10000 | – | – | 0.213 | 0.135 | > 2.17 | 1180 | 3320 | 157 | 0.36 | 0.05 | O=C(NC1(c2ccc(C(F)(F)F)cc2F)CCOCC1O)c1cnn2cc(C3CC3)cnc12 (single isomer, unassigned) [Example 82a]
16 | 1740 | > 10000 | 90.7 | 0.883 | – | – | – | – | – | – | – | – | O=C(NC1(c2ccc(C(F)(F)F)cc2F)COCC1O)c1cnn2cc(C3CC3)cnc12 (single isomer, unassigned) [Example 69]
17 | – | – | – | – | 0.183 | – | – | – | – | – | – | – | CC1(O)COCCC1(NC(=O)c1cnn2cc(C3CC3)cnc12)c1ccc(C(F)(F)F)cc1F (racemic) [Example 53]
18 | 74 | > 10000 | – | – | 0.162 | 0.128 | > 2.17 | 1320 | 1210 | 106 | 1.17 | 0.09 | Cc1nn2cc(C3CC3)cnc2c1C(=O)NC1(c2ccc(C(F)(F)F)cn2)CCOCC1 [Example 21]
19 | 568 | > 10000 | – | – | – | – | – | – | – | – | – | – | Cc1cnc2c(C(=O)NC3(c4ccc(Cl)cc4F)CCOC3)cnn2c1 (racemic) [Example 39]
20 | 119 | 9920 | – | – | – | – | – | – | – | – | – | – | Cc1cnc2c(C(=O)NC3(c4ccc(C(F)(F)F)cn4)CCOCC3)c(C)nn2c1 [Example 22]
21 | 60 | > 10000 | – | – | – | – | – | – | – | – | – | – | Cc1cnc2c(C(=O)NC3(c4ccc(C(F)(F)F)cc4)CCOCC3O)cnn2c1 (racemic) [Example 59]
22 | 596 | > 10000 | – | – | – | – | – | – | – | – | – | – | Cc1cnc2c(C(=O)NC3(c4ccc(C(F)(F)F)nc4)CCOCC3O)cnn2c1 (racemic) [Example 50]

— patent US10023575B2, “Cyclic ether derivatives of pyrazolo[1,5-a]pyrimidine-3-carboxyamide” (Boehringer Ingelheim International GmbH, priority 2015, dated 2018)
